Test results: patent publication US7862642B2, “Extended-release urea-based granular fertilizer” (Georgia-Pacific Chemicals LLC, priority 2006, dated 2011)
Where two headings read alike, the source gives them in different places.

Tested on: Kentucky bluegrass (Poa pratenis L.) turf stand
Settings: visual scale 1-9 (1=no burn or discoloration, 6=moderate, 9=severe), 3 replications; for Mean Phytotoxicity Score DAT 3: 3 days after treatment; for Mean Phytotoxicity Score DAT 5: 5 days after treatment; for Mean Phytotoxicity Score DAT 13: 13 days after treatment; for Mean Phytotoxicity Score DAT 20: 20 days after treatment
Description: SGN is defined as the median particle size (in millimeters), i.e., 50% of the particles (by weight) have a particle size above and below this number. The respective fertilizers were applied to a Kentucky bluegrass (Poa pratenis L.) turf stand at the Hancock Turfgrass Research Center on the campus of Michigan State University.
The experimental design was a randomized complete block design with 3 replications. Fertilizer treatments were applied at rates of 1, 2, and 6 lbs. Nitrogen/1000 ft^2. Treatments were applied with a hand shaker container over a 12 ft^2 area. Irrigation (0.25″ water) was not applied until 3 days after treatment application. Visual ratings were conducted on a scale 1-9 with 1=no burn or discoloration, 6=moderate burn or discoloration, and 9=severe burn or discoloration.

In the case of `NC(N)=O` [UREA, urea], the “Mean Phytotoxicity Score DAT 3” value (1 lb N/1000 ft^2) was 1, the “Mean Phytotoxicity Score DAT 5” value (1 lb N/1000 ft^2) was 1 and the “Mean Phytotoxicity Score DAT 13” value (1 lb N/1000 ft^2) was 1. The “Mean Phytotoxicity Score DAT 20” value (1 lb N/1000 ft^2) was 1, the “Mean Phytotoxicity Score DAT 3” value (2 lb N/1000 ft^2) was 2.3 and the “Mean Phytotoxicity Score DAT 5” value (2 lb N/1000 ft^2) was 3.7. For the same molecule, the “Mean Phytotoxicity Score DAT 13” value (2 lb N/1000 ft^2) was 2.3, the “Mean Phytotoxicity Score DAT 20” value (2 lb N/1000 ft^2) was 1 and the “Mean Phytotoxicity Score DAT 3” value (6 lb N/1000 ft^2) was 7.7. The “Mean Phytotoxicity Score DAT 5” value (6 lb N/1000 ft^2) was 8.2, the “Mean Phytotoxicity Score DAT 13” value (6 lb N/1000 ft^2) was 7.7 and the “Mean Phytotoxicity Score DAT 20” value (6 lb N/1000 ft^2) was 4.0.
